Source: patent US11806401B2, “Prevention of drug-induced atrio-ventricular block” (SignPath Pharma Inc., priority 2016, dated 2023)

Tests used:
guinea pigs [1] = assay: Effect of Fingolimod, verapamil and 14:0 lyso PG on PR intervals / AV block in instrumented guinea pigs; type: in vivo, guinea pig
Experimental: PR intervals were measured following the infusion of Fingolimod. Measurements of PR were stopped when the P wave disconnected from the QRS complexes, indicating 3rd degree AV block.
Fingolimod was administered by intravenous infusion to instrumented guinea pigs at doses ranging from 3 μg/kg to 300 μg/kg (n=6, green series, above). The intravenous route of administration was selected because it simplified the pharmacokinetics of this multi-drug experiment.
Again, the intravenous route of administration for both drugs was selected to simplify the kinetics of the experiment.

guinea pigs [2] = assay: Effect of Fingolimod, verapamil and 14:0 lyso PG on QTc interval in instrumented guinea pigs; type: in vivo, guinea pig
[3] = system: normal subjects and cancer patients; assay: Phase 1a and 1b clinical studies of liposomal curcumin (14:0 lyso PG); type: in vivo, human
Excerpt: To date, 45 normal subjects and 28 cancer patients have been tested in Phase 1a and 1b (ongoing) studies, respectively.

guinea pigs [4] = assay: Effect of single oral doses of Moxifloxacin on QTc interval of instrumented guinea pigs, without or with 14:0 lyso PG; type: in vivo, guinea pig
[5] = Prevention of drug-induced QTc prolongation in regulatory-validated preclinical models; type: in vivo; conditions: against Moxifloxacin; Nilotinib; Crizotinib; Sotalol; Curcumin; Nifedipine; Lovastatin; Thioridazine; Amiodarone; Terfenadine; E4031; Felbamate; Gilenya; Quizartinib (AC220); Forskolin; Turmerone
[6] = system: clinical volunteers and patients; conditions: cited from earlier work
IKr = IKr (Homo sapiens, UniProt Q12809); conditions: cited from earlier work
[7] = 14:0 lyso PG given orally prior to Fingolimod and/or verapamil
[8] = 0.5 mg/kg verapamil i.v. 60 minutes before Fingolimod infusion
[9] = intravenous infusion of Fingolimod alone
[10] = oral 1.0 mg/kg 14:0 lyso PG, then verapamil, then Fingolimod infusion

Sequence of IKr (Q12809 whole entry): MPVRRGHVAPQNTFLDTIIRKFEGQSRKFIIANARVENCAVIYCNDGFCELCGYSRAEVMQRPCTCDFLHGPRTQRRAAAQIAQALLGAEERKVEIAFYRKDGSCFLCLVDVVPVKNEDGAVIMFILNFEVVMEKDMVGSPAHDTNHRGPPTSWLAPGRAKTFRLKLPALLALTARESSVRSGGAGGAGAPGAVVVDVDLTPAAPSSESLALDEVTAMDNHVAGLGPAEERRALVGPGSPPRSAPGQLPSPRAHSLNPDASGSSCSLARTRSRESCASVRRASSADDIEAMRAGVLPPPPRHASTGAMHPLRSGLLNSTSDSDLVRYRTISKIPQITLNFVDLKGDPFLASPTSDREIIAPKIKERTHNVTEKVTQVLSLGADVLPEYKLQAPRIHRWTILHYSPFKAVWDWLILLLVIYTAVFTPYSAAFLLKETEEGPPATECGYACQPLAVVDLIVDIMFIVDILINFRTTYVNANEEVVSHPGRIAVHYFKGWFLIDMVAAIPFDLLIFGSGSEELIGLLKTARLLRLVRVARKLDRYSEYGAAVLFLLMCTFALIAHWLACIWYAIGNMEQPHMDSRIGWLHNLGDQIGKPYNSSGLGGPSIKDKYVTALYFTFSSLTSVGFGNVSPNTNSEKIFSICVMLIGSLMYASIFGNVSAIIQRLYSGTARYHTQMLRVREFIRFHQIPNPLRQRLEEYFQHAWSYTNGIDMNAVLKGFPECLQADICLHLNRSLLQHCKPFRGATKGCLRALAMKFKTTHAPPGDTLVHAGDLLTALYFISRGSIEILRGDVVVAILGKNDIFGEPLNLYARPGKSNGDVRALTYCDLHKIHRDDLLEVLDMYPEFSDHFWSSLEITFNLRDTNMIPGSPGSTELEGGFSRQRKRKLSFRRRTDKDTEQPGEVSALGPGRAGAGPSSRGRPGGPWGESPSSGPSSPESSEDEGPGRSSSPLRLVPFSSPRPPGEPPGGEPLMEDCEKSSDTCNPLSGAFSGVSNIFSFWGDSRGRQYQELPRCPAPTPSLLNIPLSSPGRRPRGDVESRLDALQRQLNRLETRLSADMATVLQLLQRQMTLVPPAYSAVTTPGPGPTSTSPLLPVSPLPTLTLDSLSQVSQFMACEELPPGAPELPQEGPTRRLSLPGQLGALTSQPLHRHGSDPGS

SMILES: CCCCCCCCCCCCCC(=O)OC[C@@H](O)COP(=O)(O)OCC(O)CO (mixture of isomers) [14:0 lyso PG, 1-myristoyl-2-hydroxy-sn-glycero-3-phospho-(1′-rac-glycerol)]
- right-shift of the appearance of 3rd-degree AV block compared to Fingolimod alone (guinea pigs [1]; [7]): 13 fold
- right-shift of the appearance of 3rd-degree AV block compared to animals receiving both Fingolimod and verapamil (guinea pigs [1]; [7]): 6.6 fold
- change in cardiac electrophysiology (guinea pigs [2]; guinea pig, in vivo, po, 1 mg/kg): no change in cardiac electrophysiology
- QTc prolongation for any given dose of Fingolimod relative to verapamil+Fingolimod animals (guinea pigs [2]; oral 1.0 mg/kg 14:0 lyso PG, then 0.5 mg/kg verapamil i.v. at 60 min, Fingolimod i.v. at 120 min): ⅓
- Maximum Tolerated Dose (MTD) (guinea pigs [2]; oral gavage formulation): greater than the highest achievable dose in the oral formulation
- adverse effects ([3]; exposure levels used in the curcumin Phase 1a and Phase 1b clinical trials): devoid of adverse effects
- clinical efficacy against curcumin: QT and QTc interval prolongation ([3]; ongoing Phase 1b study, human patients): preventing QT and QTc interval prolongation
- tolerability in clinical trials ([3]; orally-administered): well-tolerated
- changes in QTc (guinea pigs [4]; concomitant oral 14:0 lyso PG with Moxifloxacin, 14:0 lyso PG:Moxifloxacin ratio 0.45:1, n=6): no, or very little, changes in QTc
- shift in the QTc-dose response of Moxifloxacin (guinea pigs [4]; concomitant oral 14:0 lyso PG, ratio 0.45:1): statistically significant right-shift
- QTc prolongation by other drugs [5]: prevents

SMILES: CCCCCCCCc1ccc(CCC(N)(CO)CO)cc1 [Fingolimod]
- AV block in human patients ([6]; Full Prescribing Information, Novartis): produce AV block from the first dose
- QT/QTc prolongation ([6]; administered alone in healthy, naive animals and clinical volunteers): limited QT/QTc prolongation
- QTc intervals ([6]; clinical patients taking verapamil along with Fingolimod): severely prolonged QTc intervals
- delays in repolarization ([6]; therapeutic doses, in a pair of individuals (EMA Assessment Report)): 60 ms
- IKr inhibition (IKr): approximately 64%
- Fingolimod dose at 1st-degree AV block (guinea pigs [1]; [8]): 0.007 mg/kg
- Fingolimod dose at 3rd-degree dissociation between P waves and QRS complexes (guinea pigs [1]; [8]): 0.045 mg/kg
- Fingolimod dose at Mobitz-Type-1 2nd degree AV block (guinea pigs [1]; [8]): 0.01 mg/kg
- Fingolimod dose at 1st degree AV block (guinea pigs [1]; [9]): 0.015 mg/kg
- Fingolimod dose at 3rd degree AV block (guinea pigs [1]; [9]): 0.023 mg/kg
- Fingolimod dose at Mobitz Type-1, 2nd-degree AV block (guinea pigs [1]; [9]): 0.02 mg/kg
- Fingolimod dose at 1st-degree AV block (guinea pigs [1]; oral 1.0 mg/kg 14:0 lyso PG, 0.5 mg/kg verapamil i.v. 60 min later, Fingolimod infusion 60 min post-verapamil): 0.2 mg/kg
- Fingolimod dose at P-QRS dissociation, in the rest of the animals in the cohort (guinea pigs [1]; [10]): 0.3 mg/kg
- Fingolimod dose at P-QRS dissociation, in the two animals with Mobitz-Type-2 AV block (guinea pigs [1]; [10]): 0.051 mg/kg
- animals with Mobitz-Type-2 AV block (guinea pigs [1]; [10]): 2 out of 6
- changes in PR intervals (guinea pigs [1]; oral 1.0 mg/kg 14:0 lyso PG, then verapamil, then Fingolimod infusion, up to a dose of 200 μg/kg): modest changes in PR intervals
